According to patent US4338302A, “Herbicolin and microbiological method for the preparation thereof” (priority 1979, dated 1982):
Where a SMILES comes first, the peptide text is derived from it. [ ]: non-standard residue; d: D form. Phe(ol) = N[C@H](CO)Cc1ccccc1; Aib = CC(C)(N)C(=O)O

How the values were obtained:
[1] = tested on: Neurospora crassa; assay: Comparative plate diffusion test with membrane-modifying peptide antibiotics (Example 5 (2)); assay type: cell-based; settings: 10 μg/plate; in words
Experimental: (§1) Respectively, 10 μg of the corresponding antibiotics is pipetted in the form of a methanolic solution on the filter plates and, after drying, placed on a nutrient substrate inoculated with Neurospora crassa spores.
(2) In the same manner, various membrane-modifying peptide antibiotics are comparison-tested with herbicolin A:
Trichotoxin A 40, Suzukazillin, Alamethicin F 50, and herbicolin A, respectively, 10 μg/plate.

[2] = tested on: Neurospora crassa; assay: Comparative plate diffusion test with other conventional antifungal substances (Example 5 (1)); assay type: cell-based
Experimental: as §1

`CC(=O)NC(C)(C)C(=O)N1CCC[C@H]1C(=O)NC(C)(C)C(=O)N[C@@H](C)C(=O)NC(C)(C)C(=O)N[C@@H](C)C(=O)N[C@@H](CCC(N)=O)C(=O)NC(C)(C)C(=O)N[C@H](C(=O)NC(C)(C)C(=O)NCC(=O)N[C@@H](CC(C)C)C(=O)NC(C)(C)C(=O)N1CCC[C@H]1C(=O)N[C@H](C(=O)NC(C)(C)C(=O)NC(C)(C)C(=O)N[C@@H](CCC(=O)O)C(=O)N[C@@H](CCC(N)=O)C(=O)N[C@H](CO)Cc1ccccc1)C(C)C)C(C)C` [Alamethicin] (Ac-[Aib]P[Aib]A[Aib]AQ[Aib]V[Aib]GL[Aib]PV[Aib][Aib]EQ[Phe(ol)]) was tested, and the inhibition zone [1] was “only a weak inhibition zone”.

`C[C@@H]1[C@H](O)[C@@H](C)/C=C/C=C/C=C/C=C/C=C/C=C/C=C/[C@H](O[C@@H]2O[C@H](C)[C@@H](O)[C@H](N)[C@@H]2O)C[C@@H]2O[C@](O)(C[C@@H](O)C[C@@H](O)[C@H](O)CC[C@@H](O)C[C@@H](O)CC(=O)O[C@H]1C)C[C@H](O)[C@H]2C(=O)O` [amphotericin] gave a zone of inhibition at 10 µg/disc ([2]; Neurospora crassa, 18 h, read-out: inhibition zone) of about 10 mm.

For `COC1=CC(=O)C[C@@H](C)[C@]12Oc1c(Cl)c(OC)cc(OC)c1C2=O` [griseofulvin], the inhibition zone ([2]; 10 μg on filter plate, 18 hours, 27° C.) was “no inhibition zone”.
